The numbers were not newly measured in patent US8329142B2, “Compounds, compositions and methods for medical imaging of Parkinson's disease” (priority 2003, dated 2012), which cites them from elsewhere.

The structures appear in SMILES notation.

For data set [1] the following is noted: intra-venous (IV) and oral administration.
In data set [2] the target is T1, Aβ(1-40) (Homo sapiens, UniProt P05067). Particulars: in vitro.
The target in another data set is Aβ(1-28) (Homo sapiens, UniProt P05067). Particulars: computer-based molecular modeling.
Data set [3] addresses T1, Aβ(1-40).

T1 sequence (P05067 672-711 limits assumed): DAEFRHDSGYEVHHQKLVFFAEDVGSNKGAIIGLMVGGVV
Aβ(1-28), sequence (P05067 672-699): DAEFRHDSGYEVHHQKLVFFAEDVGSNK

On to `[12CH3][14N+]([12CH3])([12CH3])CC[16O][31P](=[16O])([16OH])[16O]CC([16OH])C[16OH]` (stereo not shown) [GPC, glycerophosphocholine], for which the brain penetration result in data set [1] was “enters the brain”. Besides, the “enhancement of Aβ(1-40) aggregation” value at Aβ(1-40) [2] is reported as “over 400%”. The “binding to Aβ(1-28) peptide site (pocket Lys28, Asp23, Lys16)” value at Aβ(1-28) is “bind specifically”. Besides, on Aβ(1-40) [3], the “reduction of α-helical content of Aβ(1-40)” value is 15%.
